Reference: PMC3629922 (ACS medicinal chemistry letters, 2013)

What was measured:
5-HT2B receptor [1] = biological target: T1, 5-HT2B receptor (Homo sapiens, UniProt P41595); experiment: 5-HT2B functional assay using HTRF quantitation of IP1 accumulation; type: cell-based
5-HT2B receptor [2] = biological target: T1, 5-HT2B receptor; conditions: binding and functional assays; cited from earlier work
[3] = system: 5-HT2B receptors in porcine pulmonary arteries; conditions: cited from earlier work
D2 receptor = conditions: cited from earlier work
5-HT2B receptor [4] = biological target: T1, 5-HT2B receptor; experiment: 5-HT2B functional antagonism against serotonin; type: cell-based
5-HT2B receptor [5] = biological target: T1, 5-HT2B receptor; experiment: 5-HT2B functional assay, intracellular calcium mobilization; type: cell-based; conditions: FLIPR Tetra, n = 5
D4 = biological target: T2, D4 (Homo sapiens, UniProt P21917); experiment: D4 functional assay; type: cell-based; conditions: performed at the PDSP
T2 sequence (P21917 1-419): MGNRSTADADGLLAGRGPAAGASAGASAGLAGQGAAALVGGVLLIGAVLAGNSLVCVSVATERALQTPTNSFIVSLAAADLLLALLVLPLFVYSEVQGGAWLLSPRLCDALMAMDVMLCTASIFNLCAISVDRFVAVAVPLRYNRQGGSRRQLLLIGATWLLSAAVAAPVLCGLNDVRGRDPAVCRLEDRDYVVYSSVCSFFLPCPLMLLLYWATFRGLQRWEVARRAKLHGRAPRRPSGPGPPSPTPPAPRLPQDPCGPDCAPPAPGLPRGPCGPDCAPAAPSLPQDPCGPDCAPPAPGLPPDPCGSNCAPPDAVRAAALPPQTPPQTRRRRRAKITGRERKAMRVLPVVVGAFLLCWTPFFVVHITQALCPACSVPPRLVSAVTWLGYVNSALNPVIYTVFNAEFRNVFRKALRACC

D2 = D2 (Homo sapiens, UniProt P14416); experiment: D2 functional assay; type: cell-based; conditions: performed at the PDSP
D2, sequence (P14416 whole entry): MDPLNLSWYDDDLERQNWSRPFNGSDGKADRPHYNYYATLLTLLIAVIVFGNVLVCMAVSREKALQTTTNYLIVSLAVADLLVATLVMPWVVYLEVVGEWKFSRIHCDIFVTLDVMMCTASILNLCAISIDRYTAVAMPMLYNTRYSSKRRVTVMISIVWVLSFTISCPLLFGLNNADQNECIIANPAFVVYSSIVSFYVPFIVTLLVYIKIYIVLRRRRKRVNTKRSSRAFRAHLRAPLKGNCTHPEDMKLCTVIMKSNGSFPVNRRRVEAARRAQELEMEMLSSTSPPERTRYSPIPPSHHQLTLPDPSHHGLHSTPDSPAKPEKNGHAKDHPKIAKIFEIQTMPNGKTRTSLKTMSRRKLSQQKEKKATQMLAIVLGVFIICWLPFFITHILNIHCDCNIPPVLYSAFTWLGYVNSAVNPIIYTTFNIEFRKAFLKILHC

T1 sequence (P41595 whole entry): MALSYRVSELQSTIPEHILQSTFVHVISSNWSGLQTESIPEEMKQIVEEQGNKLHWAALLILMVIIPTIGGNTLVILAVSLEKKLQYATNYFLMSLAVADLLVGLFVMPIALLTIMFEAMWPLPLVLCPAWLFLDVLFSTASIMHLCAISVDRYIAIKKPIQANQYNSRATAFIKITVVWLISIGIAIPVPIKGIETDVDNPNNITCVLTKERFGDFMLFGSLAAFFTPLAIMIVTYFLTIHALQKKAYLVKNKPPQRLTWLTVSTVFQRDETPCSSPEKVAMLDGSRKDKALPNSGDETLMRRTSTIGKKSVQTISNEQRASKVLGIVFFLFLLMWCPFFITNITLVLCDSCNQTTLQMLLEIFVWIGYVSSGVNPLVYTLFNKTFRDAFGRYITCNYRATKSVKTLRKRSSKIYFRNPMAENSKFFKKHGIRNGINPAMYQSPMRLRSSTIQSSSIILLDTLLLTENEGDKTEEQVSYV

Compound	Functionality at the 5-HT2B receptor (IP1 assay) (5-HT2B receptor [1])	Antagonism against serotonin at the 5-HT2B receptor (5-HT2B receptor [4])	Functionality at the human 5-HT2B receptor (calcium mobilization assay) (5-HT2B receptor [5])	also measured
C=CCN1C[C@H](C(=O)N(CCCN(C)C)C(=O)NCC)C[C@@H]2c3cccc4[nH]cc(c34)C[C@H]21 [cabergoline, reference compound]	full agonists			
CC[C@@H](CO)NC(=O)[C@@H]1C=C2c3cccc4[nH]cc(c34)C[C@H]2N(C)C1 [methylergonovine]				Activity at the 5-HT2B receptor (5-HT2B receptor [2]): partial agonist
CC[C@@H](CO)NC(=O)[C@@H]1C=C2c3cccc4c3c(cn4C)C[C@H]2N(C)C1 [methysergide]				Activity at the 5-HT2B receptor (5-HT2B receptor [2]): significantly weaker activity
C=CCN1C[C@H](C(=O)N(CCCN2CCOCC2)C(=O)NCC)C[C@@H]2c3cccc4[nH]cc(c34)C[C@H]21 [Compound 1]	full agonists			
CCCN1C[C@H](CSC)C[C@@H]2c3cccc4[nH]cc(c34)C[C@H]21 [pergolide]				Functionality at 5-HT2B receptors in porcine pulmonary arteries [3]: functional agonist; Functionality at the D2 receptor (D2 receptor): full agonists
CN(C)CCCNC(=O)[C@@H]1C[C@@H]2c3cccc4c3c(cn4C)C[C@H]2N(C)C1 [Compound 14]	minimal to no agonism	potent antagonists	minimal to no agonism	
CSC[C@@H]1C[C@@H]2c3cccc4[nH]cc(c34)C[C@H]2N(C)C1 [6-methylpergolide]				Functionality at the D2 receptor (D2 receptor): full agonists
CCNC(=O)N(CCCN(C)C)C(=O)[C@@H]1C[C@@H]2c3cccc4c3c(cn4C)C[C@H]2N(C)C1 [Compound 9, 1,6-Dimethylcabergoline]	no agonism	potent antagonists	no agonism	D4 functionality (D4): full D4 agonist; D2 functionality (D2): potent but partial D2 agonist
COC(OC)[C@@H]1C[C@@H]2c3cccc4c3c(cn4C)C[C@H]2N(C)C1 [Compound 15]	no agonism	potent antagonists	no agonism	
